{"source": "patent US20100292316A1", "about": "“IMPROVED THERAPEUTIC METHODS AND COMPOSITIONS COMPRISING CHROMAN RING COMPOUNDS” (Research Development Foundation, priority 2007, published 2010)", "format_in_all_cases": "cell-based, human", "key": {"LNCaP cells": {"test_system": "LNCaP cells", "assay": "Apoptosis by DAPI staining, LNCaP", "description": "Cells were plated at 2×10^6 in 100 mm cell culture plates, cultured overnight and washed with serum free media before transfection. Plasmids (0.7 μg or 4.2 of μg) or empty vector (pcDNA3) were mixed with 50 μl or 300 μl serum free media and 4 μl or 24 μl PLUS reagent (Invitrogen, CA) and incubated for 15 min at room temperature. Next 2 μl or 12 μl of Lipofectamine reagent (Invitrogen, CA) in 50 μl or 300 μl serum free media were added and the mixture incubated for another 15 min before adding to the cells in 0.5 ml or 5 ml serum free media. Cells were incubated with transfection reagents for 3 h and the growth media containing 2×FBS was added to the cells. Transfected cells were cultured overnight before α-TEA treatment. Transfection efficiency was determined to be 70% using GFP expressing plasmid.\nAssessment of apoptosis based on nuclear morphology using 4′, 6-diamidino-2-phenylindole dihydrochloride (DAPI; Boehringer Mannheim Corp. Indianapolis, Ind.) has been described previously (Yu et al., 2003; Israel et al., 2000). Briefly, 1.5×10^5/well LNCaP or PC-3-GFP cells were plated in 12-well tissue culture plates and cultured overnight to allow cells to attach. On the next day, cells were treated with various concentrations of α-TEA and incubated for various time periods. At the end of treatments, cells were collected, washed with PBS, stained with 25 μl of 2 μg/ml DAPI, and viewed under a fluorescent microscope (model ICM 405 with a model 487701 filter, Zeiss). Cells which contained clearly condensed chromatin or fragmented nuclei were scored as apoptotic cells. ≧500 cells were counted in each sample. Apoptotic data are presented as percentage of apoptotic cells±S.D. for three independent experiments.\nFOXO1 siRNA used in the study was purchased from Santa Cruz (Santa Cruz, Calif.). […] Transfection of human prostate cancer cells with FOXO1 siRNA or negative control siRNA was performed in 100 mm cell culture dishes at a density of 2×10^6 cells/dish using Lipofectamine 2000 (Invitrogen, Carlsbad, Calif.) and 300 pmol of siRNA duplex, resulting in a final siRNA concentration of 30 nM. siRNA transfected cells were incubated for 48-72 h prior to α-TEA treatment."}, "GSK3β": {"test_system": "GSK3β", "assay": "Western blot of phospho-GSK3β (Ser 9)", "conditions": "LNCaP and PC-3-GFP cells, 40 μM α-TEA", "source_text": "Previous studies have shown that α-TEA is an effective inducer of apoptosis in human prostate cancer cells (Anderson et al., 2004). Dose- and time-dependent pro-apoptotic effects of α-TEA in prostate cancer cells are mediated by Fas/FADD/caspase-8/tBid and Fas/Daxx/Ask1/JNK1/2/Bax, leading to activation of caspases-9 and -3. Thus, the Akt inhibiting activity of α-TEA was investigated in prostate cancer cells. Since phosphorylation of Akt at Ser 473 is required for its full activation (Cheng et al., 2005), we examined the phosphorylation status of Akt using an antibody that specifically recognizes Akt phosphorylated at Ser 473 in all three Akt isoforms (Upstate Cell Signaling Solutions (Charlottesville, Va.)). α-TEA decreased the levels of the phosphorylated forms of Akt. […] As verification that the decreases in phosphorylation status of Akt correlated with decreased kinase activity, the phosphorylation status of GSK3β, a downstream Akt target, was evaluated following α-TEA treatments. […] GAPDH levels were assayed with each immunoblot assay as a protein loading control.\nAkt antibodies for the foregoing studies (Akt, Akt1, Akt2, Akt and phospho-Akt) as well as GSK3β and phospho-GSK3β antibodies were purchased from Cell Signaling Technology (Beverly, Mass.)."}, "PARP": {"test_system": "PARP", "assay": "PARP cleavage (p84) by Western blot, densitometry", "conditions": "LNCaP, 40 μM α-TEA 15 h", "description": "Whole-cell protein extracts were prepared as described previously (Yu et al., 1999), and 50 μg of protein was loaded per lane, separated using SDS-PAGE on a 10-15% gel under reducing conditions, and electroblotted onto a nitrocellulose membrane ([…] Optitran BA-S-supported nitrocellulose; Schleicher and Schuell, Keene, N.H.). Equal loading was verified using GAPDH antibody. Primary rabbit antibodies with specificity for PARP and primary goat antibody with specificity for Arg were purchased from Santa Cruz Biotechnology (Santa Cruz, Calif.). Horseradish peroxidase conjugated goat anti-rabbit or horseradish goat anti-mouse secondary antibody was purchased from Jackson Immunoresearch Laboratory (West Grove, Pa.). Horseradish peroxidase-conjugated donkey anti-goat serum was purchased from Santa Cruz Biotechnology. Immune complexes were visualized using enhanced chemiluminescence detection (Pierce Chemical Co., Rockford, Ill.). Fold differences in level of chemiluminescence were determined by densitometric analyses.\nPrimary mouse antibody specific for p73 was purchased from IMGENEX (San Diego, Calif.). Primary mouse antibody specific for caspase 8 was purchased from Cell Signaling Technology (Beverly, Mass.). Horseradish peroxidase conjugated goat anti-rabbit or goat anti-mouse secondary antibodies were purchased from Jackson Immunoresearch Laboratory (West Grove, Pa.). Horseradish peroxidase-conjugated donkey […] serum was purchased from Santa Cruz Biotechnology. Immune complexes were visualized using enhanced chemiluminescence detection (Pierce Chemical Co., Rockford, Ill.). Fold differences in level of chemiluminescence were determined by densitometric analyses."}}, "data": [{"compound": "Cc1c(C)c2c(c(C)c1OCC(=O)O)CC[C@@](C)(CCC[C@H](C)CCC[C@H](C)CCCC(C)C)O2", "note": "[α-TEA]", "values": [{"measurement": "decrease in percentage of apoptotic cells in cells expressing constitutively active Akt1 vs empty vector", "setting": "LNCaP cells; 15 μM α-TEA", "value": 21, "unit": "%"}, {"measurement": "decrease in percentage of apoptotic cells in cells expressing constitutively active Akt1 vs empty vector", "setting": "LNCaP cells; 20 μM α-TEA", "value": 24, "unit": "%"}, {"measurement": "decrease in percentage of apoptotic cells in cells expressing constitutively active Akt2 vs empty vector", "setting": "LNCaP cells; 20 μM α-TEA", "value": 10, "unit": "%"}, {"measurement": "α-TEA-induced apoptosis on overexpression of wild type or constitutively active FOXO1", "setting": "LNCaP cells; 40 μM α-TEA 15 h, P<0.009", "value": "increased"}, {"measurement": "phosphorylation status of pGSK3β (at Ser 9)", "setting": "GSK3β", "value": "Decreases"}, {"measurement": "PARP cleavage in comparison to empty vector control, cells overexpressing Flag-tagged wild type FOXO1", "setting": "PARP", "value": 160, "unit": "%"}, {"measurement": "PARP cleavage in comparison to empty vector control, cells overexpressing constitutively active Flag-FOXO1 AAA", "setting": "PARP", "value": 230, "unit": "%"}]}]}
